Values quoted from earlier work, collected in patent publication US10780172B2, “Docetaxel and human serum albumin complexes” (Zhuhai Beihai Biotech Co., Ltd., priority 2015, dated 2020).
Entries after “also recorded” stand apart in the source; their conditions may differ.

protein bound (plasma proteins; in vitro studies, mainly to al-acid glycoprotein, albumin, and lipoproteins): about 94% | in vitro binding to plasma proteins (plasma proteins; three cancer patients): approximately 97%
Structure (SMILES): CC(=O)O[C@@]12CO[C@@H]1C[C@H](O)[C@@]1(C)C(=O)[C@H](O)C3=C(C)[C@@H](OC(=O)[C@H](O)[C@@H](NC(=O)OC(C)(C)C)c4ccccc4)C[C@@](O)([C@@H](OC(=O)c4ccccc4)[C@H]21)C3(C)C [Docetaxel]
water solubility: practically insoluble in water; also recorded: very poor water solubility | potency relative to paclitaxel in inhibiting microtubule depolymerization (microtubule): about twice as potent as paclitaxel
